In patent US9346761B2, “Arginine methyltransferase inhibitors and uses thereof” (Epizyme, Inc., priority 2013, dated 2016):
pIC50: −log10 of the molar value. Like-named read-outs stand apart in the source and are kept apart here.

Experiments:
[1] = system: mono-methyl arginine in RKO cells; experiment: RKO methylation assay, In Cell Western for mono-methyl arginine and DNA content; format: cell-based; conditions: Homo sapiens
Full-length human PRMT8 = target: T1, Full-length human PRMT8 (Homo sapiens, UniProt Q9NR22); experiment: PRMT8 biochemical assay (3H-SAM Flashplate, peptide substrate)
T1 construct: Full-length human PRMT8 (NM_019854.4) isoform 1 transcript clone; made in house
From the text: General Materials. S-adenosylmethionine (SAM), S-adenosylhomocysteine (SAH), bicine, Tween20, dimethylsulfoxide (DMSO), bovine skin gelatin (BSG), isopropyl-β-D-thiogalactopyranoside (IPTG), and Tris(2-carboxyethyl)phosphine hydrochloride solution (TCEP) were purchased from Sigma-Aldrich at the highest level of purity possible. ^3H-SAM was purchase from American Radiolabeled Chemicals with a specific activity of 80 Ci/mmol. 384-well streptavidin Flashplates were purchased from PerkinElmer.
Substrates. Peptide representative of human histone H4 residues 31-45 was synthesized with an N-terminal linker-affinity tag motif and a C-terminal amide cap by 21st Century Biochemicals.
Protein Expression. E. coli (BL21(DE3) Gold, Stratagene) made competent by the CaCl2 method were transformed with the PRMT8 construct and ampicillin selection. Protein over-expression was accomplished by growing the PRMT8 expressing E. coli clone and inducing expression with 0.3 mM IPTG at 16° C. The culture was grown for 12 hours, harvested by centrifugation, and stored at −80° C. for purification.
Protein Purification. […] GST-tagged PRMT8 was eluted with 50 mM Tris, 2 mM glutathione, pH 7.8. Pooled fractions were cleaved by thrombin (10 U) and dialysed in buffer A. GST was removed by reloading the cleaved protein sample onto glutathione sepharose column and PRMT8 was collected in the flow-through fractions. PRMT8 was purified further by ceramic hydroxyapatite chromatography. The column was washed with 50 mM phosphate buffer, 100 mM NaCl, 5% glycerol, 5 mM β-mercaptoethanol, pH 7.8 and PRMT8 was eluted by 100 mM phosphate in the same buffer. Protein was concentrated and buffer was exchanged to 50 mM Tris, 300 mM NaCl, 10% glycerol, 5 mM β-mercaptoethanol, pH 7.8 by ultrafiltration.
General Procedure for PRMT8 Enzyme Assays on Peptide Substrates. The assays were all performed in a buffer consisting of 20 mM Bicine (pH=7.6), 1 mM TCEP, 0.005% BSG, and 0.002% Tween 20, prepared on the day of use. […] DMSO (1 ul) was added to Columns 11, 12, 23, 24, rows A-H for the maximum signal control and 1 ul of SAH, a known product and inhibitor of PRMT8, was added to columns 11, 12, 23, 24, rows I-P for the minimum signal control. A cocktail (40 ul) containing the PRMT8 enzyme was added by Multidrop Combi (Thermo-Fisher). The compounds were allowed to incubate with PRMT8 for 30 min at room temperature, then a cocktail (10 ul) containing ^3H-SAM and peptide was added to initiate the reaction (final volume=51 ul). […] The assays were stopped by the addition of non-radiolabeled SAM (10 ul) to a final concentration of 400 uM, which dilutes the ^3H-SAM to a level where its incorporation into the peptide substrate is no longer detectable. 50 ul of the reaction in the 384-well polypropylene plate was then transferred to a 384-well Flashplate and the biotinylated peptides were allowed to bind to the streptavidin surface for at least 1 hour before being washed once with 0.1% Tween20 in a Biotek ELx405 plate washer. The plates were then read in a PerkinElmer TopCount plate reader to measure the quantity of ^3H-labeled peptide bound to the Flashplate surface, measured as disintegrations per minute (dpm) or alternatively, referred to as counts per minute (cpm).
Where dpm=disintegrations per minute, cmpd=signal in assay well, and min and max are the respective minimum and maximum signal controls.
Where top and bottom are the normally allowed to float, but may be fixed at 100 or 0 respectively in a 3-parameter fit. The Hill Coefficient normally allowed to float but may also be fixed at 1 in a 3-parameter fit. Y is the % inhibition and X is the compound concentration.

[2] = In Cell Western, RKO cells, 72 hours, percent activation of mono-methyl arginine signal, read-out: EC30

T1 sequence (Q9NR22 whole entry, canonical isoform): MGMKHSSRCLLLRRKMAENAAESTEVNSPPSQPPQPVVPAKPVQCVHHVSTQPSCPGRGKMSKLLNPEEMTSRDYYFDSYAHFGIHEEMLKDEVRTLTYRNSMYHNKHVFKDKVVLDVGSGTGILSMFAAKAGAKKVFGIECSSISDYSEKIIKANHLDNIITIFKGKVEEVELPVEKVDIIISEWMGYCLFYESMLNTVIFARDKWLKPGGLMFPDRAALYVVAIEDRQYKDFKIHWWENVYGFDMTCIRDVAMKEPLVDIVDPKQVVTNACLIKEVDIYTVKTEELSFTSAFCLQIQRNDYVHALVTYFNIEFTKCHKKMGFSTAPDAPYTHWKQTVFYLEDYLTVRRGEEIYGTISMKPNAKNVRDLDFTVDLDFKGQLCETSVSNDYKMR

## CN(CCN)Cc1c[nH]nc1-c1cccc(Cl)c1 [Compound 122]
[1]; [2]
  EC30: 3010 to 12000 nM
Full-length human PRMT8
  pIC50: 6.00 to 7.00

## CN(CCN)Cc1c[nH]nc1-c1cccc(Cl)c1F [Compound 123]
[1]; [2]
  EC30: < 3000 nM
Full-length human PRMT8
  pIC50: 6.00 to 7.00

## CN(CCN)Cc1c[nH]nc1-c1ccc(F)c(Cl)c1 [Compound 124]
[1]; [2]
  EC30: < 3000 nM
Full-length human PRMT8
  pIC50: 6.00 to 7.00

## COc1ccc(-c2n[nH]cc2CN(C)CCN)cc1Cl [Compound 125]
[1]; RKO, 72 h
  EC30: < 3000 nM
Full-length human PRMT8
  pIC50: 6.00 to 7.00

## Cc1ccc(-c2n[nH]cc2CN(C)CCN)cc1Cl [Compound 126]
[1]; [2]
  EC30: < 3000 nM
Full-length human PRMT8
  pIC50: 6.00 to 7.00

## COc1cc(Cl)cc(-c2n[nH]cc2CN(C)CCN)c1 [Compound 127]
[1]; [2]
  EC30: 3010 to 12000 nM
Full-length human PRMT8
  pIC50: 6.00 to 7.00

## CN(CCN)Cc1cn(CC2CCOCC2)nc1-c1ccc(F)cc1 [Compound 128]
[1]; [2]
  EC30: > 12000 nM
Full-length human PRMT8
  pIC50: < 5.00

## Cc1c(F)cccc1-c1n[nH]cc1CN(C)CCN [Compound 129]
[1]; [2]
  EC30: 3010 to 12000 nM
Full-length human PRMT8
  pIC50: 6.00 to 7.00

## COc1cccc(-c2n[nH]cc2CN(C)CCN)c1 [Compound 130]
[1]; [2]
  EC30: 3010 to 12000 nM
Full-length human PRMT8
  pIC50: 6.00 to 7.00

## Cc1cccc(-c2n[nH]cc2CN(C)CCN)c1 [Compound 131]
[1]; [2]
  EC30: < 3000 nM
Full-length human PRMT8
  pIC50: 6.00 to 7.00

## CN(CCN)Cc1c[nH]nc1-c1ccc(Cl)cc1F [Compound 132]
[1]; RKO, 72 h
  EC30: < 3000 nM
Full-length human PRMT8
  pIC50: 6.00 to 7.00

## Cc1cc(Cl)ccc1-c1n[nH]cc1CN(C)CCN [Compound 133]
[1]; [2]
  EC30: < 3000 nM
Full-length human PRMT8
  pIC50: 6.00 to 7.00

## COc1ccc(-c2n[nH]cc2CN(C)CCN)cc1F [Compound 134]
[1]; [2]
  EC30: < 3000 nM
Full-length human PRMT8
  pIC50: 6.00 to 7.00

## CN(CCN)Cc1c[nH]nc1-c1ccc(C(F)(F)F)cc1Cl [Compound 135]
[1]; [2]
  EC30: 3010 to 12000 nM
Full-length human PRMT8
  pIC50: 5.52 to 6.00

## CCNC(=O)c1ccc(-c2n[nH]cc2CN(C)CCN)cc1 [Compound 136]
[1]; [2]
  EC30: > 12000 nM
Full-length human PRMT8
  pIC50: 6.00 to 7.00

## CN(CCN)Cc1c[nH]nc1-c1cc(Cl)cc(Cl)c1 [Compound 137]
[1]; [2]
  EC30: 3010 to 12000 nM
Full-length human PRMT8
  pIC50: 6.00 to 7.00

## CN(CCN)Cc1n[nH]cc1-c1ccc(OC(F)F)cc1 [Compound 138]
[1]; [2]
  EC30: < 3000 nM
Full-length human PRMT8
  pIC50: 6.00 to 7.00

## CN(CCN1CCCC1)Cc1c[nH]nc1-c1ccc(C#N)cc1 [Compound 139]
[1]; [2]
  EC30: > 12000 nM
Full-length human PRMT8
  pIC50: < 5.00

## CN(CCN)Cc1c[nH]nc1-c1ccccc1C#N [Compound 140]
[1]; [2]
  EC30: > 12000 nM
Full-length human PRMT8
  pIC50: 5.00 to 5.52

## CN(CCN)Cc1c[nH]nc1-c1ccc(C(F)(F)F)c(F)c1 [Compound 141]
[1]; [2]
  EC30: < 3000 nM
Full-length human PRMT8
  pIC50: 6.00 to 7.00

## COc1cc(-c2n[nH]cc2CN(C)CCN)ccc1F [Compound 142]
[1]; [2]
  EC30: < 3000 nM
Full-length human PRMT8
  pIC50: 6.00 to 7.00

## CCN(CC)C(=O)c1ccc(-c2n[nH]cc2CN(C)CCN)cc1 [Compound 143]
[1]; [2]
  EC30: > 12000 nM
Full-length human PRMT8
  pIC50: 5.52 to 6.00

## CC(C)Oc1ccc(-c2c[nH]nc2CN(C)CCN)cc1F [Compound 144]
[1]; [2]
  EC30: < 3000 nM
Full-length human PRMT8
  pIC50: 6.00 to 7.00

## CN(CCN)Cc1n[nH]cc1-c1ccc(C2CCOCC2)cc1 [Compound 145]
[1]; [2]
  EC30: < 3000 nM
Full-length human PRMT8
  pIC50: 6.00 to 7.00

## COc1ccc(-c2n[nH]cc2CN(C)CCN)c(Cl)c1 [Compound 146]
[1]; [2]
  EC30: 3010 to 12000 nM
Full-length human PRMT8
  pIC50: 5.52 to 6.00

## CN(CCN)Cc1c[nH]nc1-c1cc(C#N)ccc1Cl [Compound 147]
[1]; [2]
  EC30: > 12000 nM
Full-length human PRMT8
  pIC50: < 5.00

## CN(CCN)Cc1c[nH]nc1-c1ccc(C(F)(F)F)cc1F [Compound 148]
[1]; [2]
  EC30: 3010 to 12000 nM
Full-length human PRMT8
  pIC50: 6.00 to 7.00

## CN(CCN)Cc1c[nH]nc1-c1cccc(N(C)C)c1 [Compound 149]
[1]; [2]
  EC30: 3010 to 12000 nM
Full-length human PRMT8
  pIC50: 6.00 to 7.00

## CCOC(=O)c1cccc(-c2n[nH]cc2CN(C)CCN)c1 [Compound 150]
[1]; [2]
  EC30: 3010 to 12000 nM
Full-length human PRMT8
  pIC50: 6.00 to 7.00

## COc1cc(F)ccc1-c1n[nH]cc1CN(C)CCN [Compound 151]
[1]; [2]
  EC30: 3010 to 12000 nM
Full-length human PRMT8
  pIC50: 5.52 to 6.00
